Patent US20040204863A1, “Crystal of a kinase-ligand complex and methods of use” (priority 1999, published 2004)

Tests used:
Lck = Lck (Homo sapiens, UniProt P06239); conditions: reported in [51]; cited from earlier work
[1] = system: IL-2 production in hPBL T-cells; assay: T-cell activation: TCR-induced IL-2 secretion (ELISA); type: cell-based; conditions: human T-cell cultures, anti-CD3/anti-CD28 stimulation, 20 hours, FIG. 7B; read-out: IC50 inhibition of IL-2 production
Protocol: T-cell activation. Whole blood was obtained from normal donors and human peripheral blood lymphocytes (hPBL) were isolated by ficol-hypaque density centrifugation. T-cells were then purified from the hPBL by negative selection using an R&D column following the manufacturers directions (R&D Systems, Minneapolis, Minn.). A 96-well flat-bottomed plate was coated with 10 μg/ml of goat anti-mouse (GAM)-IgG1 (Caltag, Burlingame, Calif.) in PBS overnight at 4C. The GAM-coated plate was flicked out and anti-CD3 mAb (UCHT-1, Coulter/Immunotech, Miami, Fla.) is added at 0.2 μg/ml in AIMV medium (Gibco, Grand Island, N.Y.) for 3 hr. at 37C. Purified T-cells were pre-incubated at 1×10^5/well in AIM V with or without compound for 30 minutes then transferred to the anti-CD3 capture plate. Finally, anti-CD28 (Pharmingen, San Diego, Calif.) in AIMV (150 ng/ml final) was added to each well. Cells were incubated for 20 hours at 37C in 5% CO2 then supernatants were tested by ELISA for cytokine levels (Endogen, Woburn, Mass.).

ZAP-70 = target: T1, ZAP-70 (Homo sapiens, UniProt P43403); conditions: reported in [51]; cited from earlier work
T1 sequence (P43403 1-619): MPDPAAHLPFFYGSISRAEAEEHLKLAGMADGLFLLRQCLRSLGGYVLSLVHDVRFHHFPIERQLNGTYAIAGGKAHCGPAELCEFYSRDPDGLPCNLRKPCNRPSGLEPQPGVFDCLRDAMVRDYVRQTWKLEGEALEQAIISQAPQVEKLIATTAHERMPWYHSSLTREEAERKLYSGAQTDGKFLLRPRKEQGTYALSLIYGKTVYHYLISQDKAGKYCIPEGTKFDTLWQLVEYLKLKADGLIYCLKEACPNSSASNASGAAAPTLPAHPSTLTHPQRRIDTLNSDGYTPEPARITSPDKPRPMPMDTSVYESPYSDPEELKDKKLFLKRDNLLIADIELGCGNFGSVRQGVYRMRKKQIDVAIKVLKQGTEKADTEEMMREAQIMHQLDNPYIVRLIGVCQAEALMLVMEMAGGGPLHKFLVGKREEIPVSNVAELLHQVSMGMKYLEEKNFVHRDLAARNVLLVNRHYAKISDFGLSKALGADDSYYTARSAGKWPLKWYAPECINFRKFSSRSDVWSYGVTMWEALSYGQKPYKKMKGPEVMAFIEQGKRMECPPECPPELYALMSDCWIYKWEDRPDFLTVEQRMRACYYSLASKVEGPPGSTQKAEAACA

[2] = system: TCR ζ-chain (p23) and 70 kD protein phosphorylation in Jurkat cells; type: cell-based; conditions: TCR-induced phosphotyrosine, western blot, FIG. 7C
Protocol: Phosphotyrosine western blotting. […] Cells were then transferred to 37° C. water bath for 1 minute. Stimulation was stopped by the addition of 5 volumes of cold PBS containing 200 μM sodium orthovanadate. Cells were spun down and lysed in 150 mM Tris/10 mM HEPES buffer, pH 7.3, containing 1% Triton X-100 and Complete protease inhibitor cocktail (Boehringer Mannheim, Germany) for 30 minutes on ice. […] Blots were probed with anti-phosphotyrosine (4G10, Upstate Biotechnology, Inc., Saranac Lake, N.Y.) and developed using ECL-plus following the manufacturers directions (Amersham, Arlington Heights, Ill.).

Chain of Lck (P06239 whole entry, species assumed): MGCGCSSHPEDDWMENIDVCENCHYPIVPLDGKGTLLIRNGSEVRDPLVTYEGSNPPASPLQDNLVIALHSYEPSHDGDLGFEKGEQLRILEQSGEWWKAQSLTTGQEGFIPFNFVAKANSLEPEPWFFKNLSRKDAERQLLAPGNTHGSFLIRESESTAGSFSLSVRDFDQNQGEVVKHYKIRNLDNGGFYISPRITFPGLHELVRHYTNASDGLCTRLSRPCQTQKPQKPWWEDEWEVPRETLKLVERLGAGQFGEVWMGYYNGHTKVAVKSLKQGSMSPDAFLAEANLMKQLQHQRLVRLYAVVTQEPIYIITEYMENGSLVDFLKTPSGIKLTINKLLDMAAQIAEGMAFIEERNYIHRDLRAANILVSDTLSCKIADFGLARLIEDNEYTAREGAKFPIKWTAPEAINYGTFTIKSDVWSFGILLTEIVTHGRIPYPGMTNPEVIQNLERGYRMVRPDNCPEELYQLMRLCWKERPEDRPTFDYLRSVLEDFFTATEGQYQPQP

SMILES | inhibitory activity against Lck compared with PP2 (Lck) | IC50 [1] | IC50 (ZAP-70) | inhibition of Lck-dependent phosphorylation of the TCR ζ-chain (p23) [2] | inhibition of phosphorylation of a 70 kD protein (likely ZAP-70) [2]
Cc1ccc(-c2nn(C(C)(C)C)c3ncnc(N)c23)cc1 [PP1] | approximately the same inhibitory activity against Lck |  |  |  | 
CC(C)(C)n1nc(-c2ccc(Cl)cc2)c2c(N)ncnc21 [PP2] |  | 0.6 µM | ≥ 100 µM | dose-dependent inhibition | inhibited the phosphorylation of a 70 kD protein
CN[C@@H]1C[C@H]2O[C@@](C)([C@@H]1OC)n1c3ccccc3c3c4c(c5c6ccccc6n2c5c31)C(=O)NC4 [staurosporine] |  | 0.06 µM |  |  | 
